Measurements reported in patent US10253356B2, “Visualizing modified nucleotides and nucleic acid interactions in single cells” (SIGMA-ALDRICH CO. LLC, priority 2014, dated 2019).

What was measured:
[1] = tested on: SEPTIN 9 promoter methylation in SW480 cells; assay: ISH-PLA visualization of SEPTIN 9 promoter methylation after drug treatment; type: cell-based, human; conditions: SW480 colon cancer cells, 500 nM for 24 hours, SEPTIN 9 probe set (ii), FIG. 5
Procedure: With this aim, a protocol was developed to perform in-situ hybridization followed by proximity ligation assay (PLA) (a.k.a., DUOLINK®, Sigma-Aldrich) and cell imaging to visualize DNA-methylation (5 meC) on the SEPTIN 9 promoter. […] The PLA assay was performed using anti-biotin and anti-5 meC antibodies, corresponding (+ and −) PLA probes, and Far Red detection reagents.
Human cancer cells, i.e., DU145 (metastatic cancer; origin in prostrate migrated to brain) or SW480 (colon cancer), were grown in DMEM (Dulbecco's Modified Eagle's Medium) supplemented with 10% FBS and Pen/Strep antibiotics, and seeded (˜10^4 cells) per well of 8-well culture chambered coverglass plates (with silicone gasket). The cells were washed twice with HBSS, and then fixed with 4% paraformaldehyde solution (40 μL/well, 16% paraformaldehyde stock diluted 1:4 in 1×PBS) for 30 minutes at room temperature (RT). The crosslinking was stopped by adding 5 μL/well of 1.25M Glycine, and incubating at RT for 5 minutes. The cells were permeabilized by incubation for 1 hour at RT with permeabilization buffer (0.75% Tween 20 and 0.75% Triton X-100 in 1×PBS). The cells were rinsed with 1×PBS. For detection of 5-meC DNA, the cells were treated with 4 N HCL for 10 minutes at RT. The cells were washed with 1×PBS for 30 min at RT. […]

SW480 cells = assay: Cytotoxic effects (cell shape) seen in drug-treated cells during ISH-PLA imaging; type: cell-based, human; conditions: 500 nM for 24 hours, a few drug treated cells
Procedure: Human cancer cells, i.e., DU145 (metastatic cancer; origin in prostrate migrated to brain) or SW480 (colon cancer), were grown in DMEM (Dulbecco's Modified Eagle's Medium) supplemented with 10% FBS and Pen/Strep antibiotics, and seeded ( 10^4 cells) per well of 8-well culture chambered coverglass plates (with silicone gasket). The cells were washed twice with HBSS, and then fixed with 4% paraformaldehyde solution (40 μL/well, 16% paraformaldehyde stock diluted 1:4 in 1×PBS) for 30 minutes at room temperature (RT). The crosslinking was stopped by adding 5 μL/well of 1.25M Glycine, and incubating at RT for 5 minutes. The cells were permeabilized by incubation for 1 hour at RT with permeabilization buffer (0.75% Tween 20 and 0.75% Triton X-100 in 1×PBS). The cells were rinsed with 1×PBS. For detection of 5-meC DNA, the cells were treated with 4 N HCL for 10 minutes at RT. The cells were washed with 1×PBS for 30 min at RT. The cells were treated for 1 minute with pre-warmed (37° C.) 0.25% Trypsin-EDTA solution, and the trypsin was inactivated by incubating for 2 minutes in pre-warmed (37° C.) quenching solution (i.e., DMEM supplemented with 10% FBS and 3 mg/mL BSA). The cells were washed with 1×PBS and blocked with an in situ hybridization blocking solution for 1 hour at RT.

## Nc1ncn([C@@H]2O[C@H](CO)[C@@H](O)[C@H]2O)c(=O)n1 [5-Azacytidine]
[1]
  SEPTIN 9 promoter methylation (nuclear ISH-PLA signal): Loss of this nuclear ISH-PLA signal
[1]; listed as 5-AzaC
  SEPTIN 9 promoter methylation (nuclear ISH-PLA signal): diminished
SW480 cells
  cytotoxic effects (altered cellular shape): cytotoxic effects in terms of altered cellular shape
